These results are taken from US10206909B2, “3-(1H-pyrrolo[2,3-B]pyridin-2-yl)-1H-pyrazolo[4,3-B]pyridines and therapeutic uses thereof” (Samumed, LLC, priority 2015, dated 2019).

Common to all, as to assay type: cell-based
In one experiment the test system is SW480 colon cancer cells. The experiment is described as follows: Cell viability assay (CellTiter-Blue). The following applies: Homo sapiens; for EC50: 96 h, SW480 cell viability, four days, CellTiter-Blue; for inhibition at 10 µM: given where EC50 >10 μM, SW480 viability, read-out: percent inhibition at 10 μM. Summed up: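 SW480 colon cancer cells (~2×10^3/well) exposed to 8-point 1:3 dilutions from 10 μM to 0.0045 μM for four days at 37 °C/5% CO2. Viability read by resazurin (CellTiter-Blue) fluorescence after ~3 h, Ex 560/Em 590 nm. EC50 from non-linear regression; percent inhibition at 10 μM given when EC50 >10 μM.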

Experiment [1] deals with primary human fibroblasts derived from IPF patients (LL29 cells). Description: Inhibition of the fibrotic process: αSMA staining in TGF-β1 treated fibroblasts. The following applies: Fibroblast; for EC50: 96 h, LL29 cells, TGF-β1 20 ng/mL, 4 days, % αSMA positive cells; for inhibition at 10 µM: given where EC50 >10 μM, LL29, αSMA, read-out: percent inhibition at 10 μM. Summed up: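 IPF-derived LL29 fibroblasts in F12 with 1% FBS dosed with compound (11-point, 10 μM to 1.87 nM, 0.1% DMSO), then 20 ng/mL TGF-β1 after 1 h, and cultured 4 days at 37 °C. αSMA-positive cell fraction imaged after excluding SYTOX-positive cells, normalized to TGF-β1/DMSO wells; EC50 by non-linear regression, % inhibition at 10 μM if EC50 >10 μM.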

The test system of experiment [2] is Wnt activity (Sp5-Luc reporter, SW480 colon carcinoma cells). Description: Wnt activity screening assay: Sp5-Luc reporter gene assay in SW480 cells. The note with it: Homo sapiens; for EC50: SW480 cells, overnight incubation; for inhibition at 10 µM: given where EC50 >10 μM, SW480, read-out: percent inhibition at 10 μM. Summed up: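 SW480 cells stably carrying Sp5-Luc reporter (eight TCF/LEF sites) plated at 4,000/well in 1% FBS medium with compound (10-point 1:3 series from 10 μM, 0.1% DMSO) overnight at 37 °C. BrightGlo luminescence normalized to DMSO; EC50 by four-parameter fit, else % inhibition at 10 μM.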

Bounds are passed on as bounds.

As to `c1cc(-c2ccnc3[nH]c(-c4n[nH]c5ccc(-c6cncc(CN7CCCCC7)c6)nc45)cc23)ccn1` [Compound 127, 5-(5-(Piperidin-1-ylmethyl)pyridin-3-yl)-3-(4-(pyridin-4-yl)-1H-pyrrolo[2,3-b]pyridin-2-yl)-1H-pyrazolo[4,3-b]pyridine], the EC50 (in the experiment with SW480 colon cancer cells; in experiment [1]; in experiment [2]) was over 10 µM each time. Besides, the inhibition (commonly the change of the read-out against control, counted positive when it falls) at 10 µM was found to be 14.5% in the experiment on SW480 colon cancer cells, 0% in experiment [1] and 5.8% in experiment [2].
Regarding `c1cc(-c2ccnc3[nH]c(-c4n[nH]c5ccc(-c6cncc(CNCC7CCCC7)c6)nc45)cc23)ccn1` [Compound 137, 1-Cyclopentyl-N-((5-(3-(4-(pyridin-4-yl)-1H-pyrrolo[2,3-b]pyridin-2-yl)-1H-pyrazolo[4,3-b]pyridin-5-yl)pyridin-3-yl)methyl)methanamine], the figures for the EC50 (with SW480 colon cancer cells; in experiment [1]; in experiment [2]) were 3.72 µM, over 10 µM and over 10 µM, respectively. Further, the results for the inhibition at 10 µM in experiment [1] and in experiment [2] were 23.8% and 19.5%, respectively.
In the case of `Cc1ccncc1-c1ccc2[nH]nc(-c3cc4c(N5CCCCC5)ccnc4[nH]3)c2n1` [Compound 173, 5-(4-Methylpyridin-3-yl)-3-(4-(piperidin-1-yl)-1H-pyrrolo[2,3-b]pyridin-2-yl)-1H-pyrazolo[4,3-b]pyridine], the EC50 (as a rule, the concentration needed to bring the measured effect to its halfway point) was over 10 µM in the experiment with SW480 colon cancer cells, over 10 µM in experiment [1] and 2.36 µM in experiment [2]. For the same compound, the figures for the inhibition at 10 µM (with SW480 colon cancer cells; in experiment [1]) were 49.2% and 10.6%, respectively.
As to `CN(C)Cc1cncc(-c2ccc3[nH]nc(-c4cc5c(N6CCCCC6)ccnc5[nH]4)c3n2)c1` [Compound 181, N,N-Dimethyl-1-(5-(3-(4-(piperidin-1-yl)-1H-pyrrolo[2,3-b]pyridin-2-yl)-1H-pyrazolo[4,3-b]pyridin-5-yl)pyridin-3-yl)methanamine], the EC50 in the experiment on SW480 colon cancer cells is over 10 µM; in experiment [1], 7.78 µM; in experiment [2], over 10 µM. Also, the inhibition at 10 µM was 47.5% with SW480 colon cancer cells and 4.1% in experiment [2].
Consider `c1cc(N2CCCCC2)c2cc(-c3n[nH]c4ccc(-c5cncc(CN6CCCCC6)c5)nc34)[nH]c2n1` [Compound 183, 3-(4-(Piperidin-1-yl)-1H-pyrrolo[2,3-b]pyridin-2-yl)-5-(5-(piperidin-1-ylmethyl)pyridin-3-yl)-1H-pyrazolo[4,3-b]pyridine], for which the EC50 (in the experiment with SW480 colon cancer cells; in experiment [1]; in experiment [2]) was over 10 µM each time. Further, the inhibition at 10 µM in the experiment on SW480 colon cancer cells was 45.5%; in experiment [1], 0%; in experiment [2] it was 6.5%.
For `CCCCC(=O)Nc1cncc(-c2ccc3[nH]nc(-c4cc5c(N6CCCCC6)ccnc5[nH]4)c3n2)c1` [Compound 187, N-(5-(3-(4-(Piperidin-1-yl)-1H-pyrrolo[2,3-b]pyridin-2-yl)-1H-pyrazolo[4,3-b]pyridin-5-yl)pyridin-3-yl)pentanamide], the EC50 was 3.53 µM in the experiment with SW480 colon cancer cells, 4.88 µM in experiment [1] and over 10 µM in experiment [2]. Also, in experiment [2], the inhibition at 10 µM came to 14.3%.
For the compound `FC1(F)CCN(Cc2cncc(-c3ccc4[nH]nc(-c5cc6c(N7CCCCC7)ccnc6[nH]5)c4n3)c2)C1` [Compound 194, 5-(5-((3,3-Difluoropyrrolidin-1-yl)methyl)pyridin-3-yl)-3-(4-(piperidin-1-yl)-1H-pyrrolo[2,3-b]pyridin-2-yl)-1H-pyrazolo[4,3-b]pyridine], the EC50 in the experiment with SW480 colon cancer cells was over 10 µM; in experiment [1] it was 2.55 µM; in experiment [2], 5.27 µM. In addition, the inhibition at 10 µM in the experiment with SW480 colon cancer cells stood at 28.3%.
With `c1ncc(-c2ccc3[nH]nc(-c4cc5c(N6CCCCC6)ccnc5[nH]4)c3n2)cn1` [Compound 195, 3-(4-(Piperidin-1-yl)-1H-pyrrolo[2,3-b]pyridin-2-yl)-5-(pyrimidin-5-yl)-1H-pyrazolo[4,3-b]pyridine], the EC50 in the experiment with SW480 colon cancer cells was over 10 µM; in experiment [1], 2.04 µM; in experiment [2], over 10 µM. In addition, the inhibition at 10 µM came to 22.9% with SW480 colon cancer cells and 12.6% in experiment [2].
In the case of `c1ccc(-c2ccc3[nH]nc(-c4cc5c(N6CCCCC6)ccnc5[nH]4)c3n2)nc1` [Compound 196, 3-(4-(Piperidin-1-yl)-1H-pyrrolo[2,3-b]pyridin-2-yl)-5-(pyridin-2-yl)-1H-pyrazolo[4,3-b]pyridine], the EC50 with SW480 colon cancer cells is over 10 µM; in experiment [1], 2.05 µM; in experiment [2], over 10 µM. The inhibition at 10 µM was 2.4% in the experiment with SW480 colon cancer cells and 9.8% in experiment [2].
`CC(C)CC(=O)Nc1cncc(-c2ccc3[nH]nc(-c4cc5c(N6CCN(C)CC6)ccnc5[nH]4)c3n2)c1` [Compound 226, 3-Methyl-N-(5-(3-(4-(4-methylpiperazin-1-yl)-1H-pyrrolo[2,3-b]pyridin-2-yl)-1H-pyrazolo[4,3-b]pyridin-5-yl)pyridin-3-yl)butanamide]: the concentration giving a half-maximal response (EC50) in the experiment on SW480 colon cancer cells is 1.55 µM; in experiment [1], 1.76 µM; in experiment [2], 3.45 µM.
The corresponding values for `CN1CCN(c2ccnc3[nH]c(-c4n[nH]c5ccc(-c6cncc(NC(=O)C(C)(C)C)c6)nc45)cc23)CC1` [Compound 232, N-(5-(3-(4-(4-Methylpiperazin-1-yl)-1H-pyrrolo[2,3-b]pyridin-2-yl)-1H-pyrazolo[4,3-b]pyridin-5-yl)pyridin-3-yl)pivalamide] are 1.44 µM, 0.795 µM and 3.83 µM.
The like results for `CN1CCN(c2ccnc3[nH]c(-c4n[nH]c5ccc(-c6cncc(NC(=O)c7ccccc7)c6)nc45)cc23)CC1` [Compound 235, N-(5-(3-(4-(4-Methylpiperazin-1-yl)-1H-pyrrolo[2,3-b]pyridin-2-yl)-1H-pyrazolo[4,3-b]pyridin-5-yl)pyridin-3-yl)benzamide] were, in that order, 3.27 µM, 3.22 µM and 6.09 µM.
`CN1CCN(c2ccnc3[nH]c(-c4n[nH]c5ccc(-c6cncc(NC(=O)CC(C)(C)C)c6)nc45)cc23)CC1` [Compound 240, 3,3-Dimethyl-N-(5-(3-(4-(4-methylpiperazin-1-yl)-1H-pyrrolo[2,3-b]pyridin-2-yl)-1H-pyrazolo[4,3-b]pyridin-5-yl)pyridin-3-yl)butanamide]: the EC50 was determined as 2 µM with SW480 colon cancer cells, 0.67 µM in experiment [1] and 3.91 µM in experiment [2].
With `c1cncc(-c2ccc3[nH]nc(-c4cc5cccnc5[nH]4)c3n2)c1` [Compound 256, 5-(Pyridin-3-yl)-3-(1H-pyrrolo[2,3-b]pyridin-2-yl)-1H-pyrazolo[4,3-b]pyridine], the EC50 in the experiment on SW480 colon cancer cells was over 10 µM; in experiment [1], 0.308 µM; in experiment [2], over 10 µM. For the same compound, the inhibition at 10 µM in the experiment with SW480 colon cancer cells came to 23.2%; in experiment [2], 47%.
Consider `CCNCc1cncc(-c2ccc3[nH]nc(-c4cc5cccnc5[nH]4)c3n2)c1` [Compound 258, N-((5-(3-(1H-Pyrrolo[2,3-b]pyridin-2-yl)-1H-pyrazolo[4,3-b]pyridin-5-yl)pyridin-3-yl)methyl)ethanamine], for which the EC50 in the experiment on SW480 colon cancer cells amounted to 2.81 µM; in experiment [1], 1.58 µM; in experiment [2], 3.78 µM.
As for `CN(C)Cc1cncc(-c2ccc3[nH]nc(-c4cc5cccnc5[nH]4)c3n2)c1` [Compound 265, 1-(5-(3-(1H-Pyrrolo[2,3-b]pyridin-2-yl)-1H-pyrazolo[4,3-b]pyridin-5-yl)pyridin-3-yl)-N,N-dimethylmethanamine], the EC50 with SW480 colon cancer cells was 4.21 µM; in experiment [1], 3.2 µM; in experiment [2] it was over 10 µM. For the same compound, the inhibition at 10 µM in experiment [2] came out at 20.6%.
Take `O=C(Nc1cncc(-c2ccc3[nH]nc(-c4cc5cccnc5[nH]4)c3n2)c1)C1CCCCC1` [Compound 275, N-(5-(3-(1H-Pyrrolo[2,3-b]pyridin-2-yl)-1H-pyrazolo[4,3-b]pyridin-5-yl)pyridin-3-yl)cyclohexanecarboxamide]: the EC50 (in the experiment with SW480 colon cancer cells; in experiment [1]; in experiment [2]) was over 10 µM each time. Besides, the figures for the inhibition at 10 µM (with SW480 colon cancer cells; in experiment [1]; in experiment [2]) were 10.5%, 0% and 14.9%, respectively.
Regarding `FC1(F)CCN(Cc2cncc(-c3ccc4[nH]nc(-c5cc6cccnc6[nH]5)c4n3)c2)C1` [Compound 278, 5-(5-((3,3-Difluoropyrrolidin-1-yl)methyl)pyridin-3-yl)-3-(1H-pyrrolo[2,3-b]pyridin-2-yl)-1H-pyrazolo[4,3-b]pyridine], the EC50 in the experiment on SW480 colon cancer cells was found to be 0.345 µM; in experiment [1], 0.086 µM; in experiment [2], 0.104 µM.
Consider `c1cnc2[nH]c(-c3n[nH]c4ccc(-c5cncnc5)nc34)cc2c1` [Compound 279, 5-(Pyrimidin-5-yl)-3-(1H-pyrrolo[2,3-b]pyridin-2-yl)-1H-pyrazolo[4,3-b]pyridine], for which the EC50 (in the experiment with SW480 colon cancer cells; in experiment [1]; in experiment [2]) was over 10 µM each time. Further, the results for the inhibition at 10 µM (in the experiment with SW480 colon cancer cells; in experiment [1]; in experiment [2]) were 14.3%, 0% and 8%, respectively.
